# According to patent publication US6034246A, “2-arylbenzazole compounds” (Cancer Research Campaign Technology Limited, priority 1995, dated 2000):
# Assays:
# [1] = tested on: NCI-H226; test: in vitro inhibition of growth of human lung cancer cell line NCI-H226 (Table 1); type: cell-based
# Description: (§1) Tables 1 to 4 at the end of the present description show in vitro test results obtained in various sets of experiments for the cytotoxic activity of several of the benzazole compounds concerned, including also for reference results for the compound CJM 126 and comparative results for compound DF129, when tested against a range of tumor cell lines which includes ovarian, lung and certain colon and renal cancer cells from the National Cancer Institute (USA) collection. As usual the results are expressed in terms of IS50 values (concentration or dosage required to reduce cell growth or proliferation by 50%) calculated from dose-effect curves plotted for cultures of the cells in question.
# (§2) In carrying out the in vitro studies, the cytotoxicity assays may be carried out by a method corresponding substantially to the following example: […]
# (§3) On day 7 the test was terminated by the addition of 100 μl saline containing 0.002% w/v propidium iodide (Sigma), 0.3% drawing ink (Staedtler "Marsmatic 745"--Trade Mark) and 0.5% Triton X-100. The plates were kept at 4° C. overnight before reading on an inverted microscope equipped with an automated scanning stage. Fluorescence intensity was measured in arbitrary units by a photomultiplier. […]
# [2] = tested on: Colon SW-620; test: in vitro inhibitory activity against human colon cell line SW-620 (Table 3); type: cell-based
# Description: as §1, §2, §3
# [3] = tested on: Prostatic PC3 MAZ; test: in vitro inhibitory activity against human prostatic cell line PC3 MAZ (Table 3); type: cell-based
# Description: as §1, §2, §3
# [4] = tested on: SK-OV-3; test: in vitro activity against human ovarian cell line SK-OV-3 (Table 2); type: cell-based
# Description: as §1, §2, §3
# [5] = estimation of toxicity in tumor-bearing nude mice (body weight, blood cells, survival); type: in vivo, mouse
# Protocol: (§4) In one typical set of experiments, four human breast carcinomas xenotransplanted into female Ncr: nu/nu (Taconic, Germantown, U.S.A.) or male Bom: NMRI-nu/nu mice (Bomholtgaard, Ry, Denmark) were used for the evaluation of antitumor activity. Mice weighing 20-25 g at the start of experiments were held under sterile conditions at 24-26° C., 50% relative humidity and 12 hours light-dark rhythm in laminar flow shelves. The animals received autoclaved food and bedding; the drinking water was filtered and acidified (pH4.0).
# (§5) The following breast carcinoma cell lines were used: BO; MCF-7 (NCI, U.S.A.); MT-1 and MT-3. The tumors BO and MCF-7 are ER^+ models: the carcinomas MT-1 and MT-3 are ER^- ones. Tumors were transplanted subcutaneously (s.c.) as pieces (2×2 mm) into the left flank of 5-8 nude mice/experimental group. Drug treatment was initiated when the tumors reached a diameter of 4-5 mm. Compounds were solubized with Tween 80 (maximum 10% of final volume) and suspended in saline. Suspensions were preparted freshly for each drug administration and injected in a volume of 0.2 mL/20 g body weight employing a once-weekly schedule (x3). Tumor size was measured twice weekly with a caliper. Median tumor volume/group was related to the first treatment day and expressed as Relative Tumor Volume (RTV). For the estimation of toxicity, body weight was determined twice weekly and the mean percentage body weight change (BCC) was calculated. In one experiment blood was obtained from the retroorbital venous plexus of mice and blood cells were determined with a Coulter counter (Model T41).
# [6] = tested on: A2780; test: in vitro activity against human ovarian cell line A2780 (Table 2); type: cell-based; settings: Homo sapiens; A2780 (parental line)
# Description: (§6) As usual the results are expressed in terms of IS50 values (concentration or dosage required to reduce cell growth or proliferation by 50%) calculated from dose-effect curves plotted for cultures of the cells in question.
# (§7) In carrying out the in vitro studies, the cytotoxicity assays may be carried out by a method corresponding substantially to the following example:
# (§8) Cells were maintained in a continuous logarithmic culture in Dublecco's medium supplemented with 10% fetal calf serum and penicillin (100 IU/ml) and streptomycin ([…]). The cells were mildly trypsinized for passage and for use in assays. On day zero, 100 μl of trypsinized tumor cells (1×10^4 /ml) were plated in the wells of 96-well flat-bottom microtiter plates. The plates were incubated for 2 days at 37° C. and 5% CO2 in air to allow the cells to adhere and resume exponential growth prior to the addition of drugs.
# (§9) On day two 50 μl of the highest drug concentration was added to the wells of column 12 and from there serially diluted 3-fold to column 1 by serial transfer of 50 μl using an 8-channel micropipette. The final volume of column 1 was adjusted to 100 μl. No additions were made to the wells of rows A and B, which served as controls. The plates were further incubated for 5 days at 37° C. and 5% CO2 in air. Each compound was tested in duplicate.
# (§10) The plates were kept at 4° C. overnight before reading on an inverted microscope equipped with an automated scanning stage. Fluorescence intensity was measured in arbitrary units by a photomultiplier. An HP-87 computer controlled the movement of the stage and also collected and processed the data from the multiplier.
# [7] = tested on: CH1-cisR; test: in vitro activity against human ovarian cell line CH1-cisR (Table 2); type: cell-based; settings: Homo sapiens, CH1cisR
# Description: as §6, §7, §8, §9, §10
# [8] = tested on: LX4; test: in vitro inhibition of growth of human lung cancer cell line LX4 (Table 1); type: cell-based
# Description: as §1, §7, §8, §9
# (§11) On day 7 the test was terminated by the addition of 100 μl saline containing 0.002% w/v propidium iodide (Sigma), 0.3% drawing ink (Staedtler "Marsmatic 745"--Trade Mark) and 0.5% Triton X-100. The plates were kept at 4° C. overnight before reading on an inverted microscope equipped with an automated scanning stage. Fluorescence intensity was measured in arbitrary units by a photomultiplier. An HP-87 computer controlled the movement of the stage and also collected and processed the data from the multiplier.
# (§12) For each compound tested a dose-response curve was obtained and the IC50 value (the drug concentration at 50% inhibition of cell growth) was calculated.
# [9] = tested on: OVCAR-4; test: in vitro activity against human ovarian cell line OVCAR-4 (Table 2); type: cell-based
# Description: as §1, §2, §3
# [10] = tested on: CH1; test: in vitro activity against human ovarian cell line CH1 (Table 2); type: cell-based; settings: Homo sapiens
# Description: as §6, §7, §8, §9, §10
# [11] = tested on: Renal TK-10; test: in vitro inhibitory activity against human renal cell line TK-10 (Table 3); type: cell-based
# Description: as §1, §2, §3
# [12] = tested on: MDA 468; test: in vitro inhibitory activity against human breast tumour cell line MDA 468 (Table 4); type: cell-based; settings: initial seeding density 2.5 × 10^2 cells/well
# Description: as §1, §7, §8, §9, §11, §12
# *Initial seeding density 2.5 × 10^2 cells/well
# [13] = tested on: L23/P; test: in vitro inhibition of growth of human lung cancer cell line L23/P (Table 1); type: cell-based
# Description: as §1, §7, §8, §9, §11, §12
# [14] = tested on: breast carcinoma BO; test: in vivo antitumor test, human breast carcinoma BO xenotransplanted in nude mice; settings: BO
# Protocol: as §4
# as §5, with “T41). […]” for “T41).”
# [15] = MCF-7, optimum dose 200 mg/Kg/inj i.p., qd 12, 19, 26
# [16] = MCF-7, optimum dose 12.5 mg/Kg/inj i.p., qd 12, 19, 26
Structure (SMILES),IC50 [1],IC50 [2],IC50 [3],IC50 [4],IC50 [6],IC50 [7],IC50 [8],IC50 [9],IC50 [10],IC50 [11],IC50 [12],IC50 [13],also measured
"Nc1ccc(-c2nc3ccccc3s2)cc1I [DF129, 2-(4'-amino-3'-iodophenyl)benzothiazole]",0.3 µM,~100 µM,54 µM,> 100 µM,> 100 µM,83 µM,> 10 µM,0.2 µM,30 µM,< 1 µM,< 0.001 µM,0.1 µM,"BWC (body weight change) ([5]; BO, optimum dose 200 mg/Kg/inj i.p., qd 27, 34, 41 (Table 6)): -14%; BWC (body weight change) [5, 15]: -14%; Platelets (% of controls) [5, 15]: 106 % of controls; WBC, white blood cells (% of controls) [5, 15]: 112 % of controls; RTV, relative tumor volume (T/C %) ([14]; optimum dose 200 mg/Kg/inj i.p., qd 27, 34, 41 (Table 6), not marked significant): 97%"
"Cc1cc(-c2nc3ccccc3s2)ccc1N [DF203, 2-(4'-amino-3'-methylphenyl)benzothiazole]",0.3 µM,> 100 µM,> 100 µM,> 100 µM,> 100 µM,42 µM,> 10 µM,< 1 µM,19 µM,< 1 µM,< 0.001 µM,10 µM,"BWC (body weight change) ([5]; BO, optimum dose 25 mg/Kg/inj i.p., qd 27, 34, 41): -9%; BWC (body weight change) [5, 16]: -12%; Platelets (% of controls) [5, 16]: 108 % of controls; WBC, white blood cells (% of controls) [5, 16]: 100 % of controls; overall change in white blood cell or platelet counts ([5]; MCF-7 test, words): no overall change; BWC (body weight change) ([5]; MT-1, optimum dose 6.25 mg/Kg/inj i.p., qd 7, 14, 21): -3%; BWC (body weight change) ([5]; MT-3, optimum dose 12.5 mg/Kg/inj i.p., qd 7, 14, 21): -3%; bone marrow toxicity ([5]; mouse, in vivo): not dose-limiting; survivors ([5]; mouse, in vivo, 25 mg/kg): only one survivor; toxicity ([5]; mouse, in vivo, 25 mg/kg): toxic; evaluation ([14]; optimum dose 25 mg/Kg/inj i.p., qd 27, 34, 41): ++ (T/C = 21-35%); RTV, relative tumor volume (T/C %) ([14]; optimum dose 25 mg/Kg/inj i.p., qd 27, 34, 41, marked * significant versus control): 35%"
